Laboratory results from patent US10597388B2, “Pyridazinone herbicides” (FMC CORPORATION, priority 2014, dated 2020).

What was measured:
Type in all cases: in vivo
[1] = tested on: foxtail, giant (giant foxtail, Setaria faberii); assay: Test A greenhouse herbicide test, pre- and postemergence
Outline: (§1)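 Visual injury ratings, 0 (no effect) to 100 (complete control), versus untreated plants after roughly 10 d in a greenhouse. Compounds, formulated in a surfactant-containing non-phytotoxic solvent, were sprayed on loam–sand soil after sowing (pre) or on one- to two-leaf plants 2–10 cm tall (post).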

[2] = tested on: pigweed (Amaranthus retroflexus); assay: as above
Outline: as §1

[3] = tested on: kochia (Kochia scoparia); assay: as above
Outline: as §1

[4] = tested on: wheat (Triticum aestivum); assay: as above; conditions: Postemergence; for Plant response rating, Wheat: 125 g ai/ha, 0 to 100 scale where 0 is no effect and 100 is complete control; for Wheat plant response rating: 500 g ai/ha, 0 to 100 scale, 0 is no effect, 100 is complete control
Outline: as §1

[5] = tested on: ragweed (common ragweed, Ambrosia elatior); assay: as above
Outline: as §1

[6] = tested on: morningglory (Ipomoea coccinea); assay: Test C greenhouse herbicide test, pre- and postemergence
From the text: (§2) Seeds of plant species selected from blackgrass (Alopecurus myosuroides), ryegrass, Italian (Italian ryegrass, Lolium multiflorum), wheat (winter wheat, Triticum aestivum), galium (catchweed bedstraw, Galium aparine), corn (Zea mays), large crabgrass, large (large crabgrass, Digitaria sanguinalis), foxtail, giant (giant foxtail, Setaria faberii), johnsongrass (Sorghum halepense), lambsquarters (Chenopodium album), morningglory (Ipomoea coccinea), nutsedge, yellow (yellow nutsedge, Cyperus esculentus), pigweed (Amaranthus retroflexus), ragweed (common ragweed, Ambrosia elatior), soybean (Glycine max), barnyardgrass (Echinochloa crus-galli), oilseed rape (Brassica napus), waterhemp (common waterhemp, Amaranthus rudis), and velvetleaf (Abutilon theophrasti) were planted into a blend of loam soil and sand and treated preemergence with test chemicals formulated in a non-phytotoxic solvent mixture which included a surfactant.
(§3) At the same time, plants selected from these crop and weed species and also chickweed (common chickweed, Stellaria media), kochia (Kochia scoparia), and oat, wild (wild oat, Avena fatua), were planted in pots containing Redi-Earth® planting medium (Scotts Company, 14111 Scottslawn Road, Marysville, Ohio 43041) comprising spaghnum peat moss, vermiculite, wetting agent and starter nutrients and treated with postemergence applications of test chemicals formulated in the same manner. Plants ranged in height from 2 to 18 cm (1- to 4-leaf stage) for postemergence treatments. Treated plants and controls were maintained in a greenhouse for 13 to 15 d, after which time all species were compared to controls and visually evaluated. Plant response ratings, summarized in Table C, are based on a scale of 0 to 100 where 0 is no effect and 100 is complete control. A dash (-) response means no test result.

[7] = tested on: blackgrass (Alopecurus myosuroides); assay: as above
From the text: as §2, §3

[8] = tested on: pigweed (Amaranthus retroflexus); assay: as above
From the text: as §2, §3

[9] = tested on: corn (Zea mays); assay: as above
From the text: as §2, §3

[10] = tested on: velvetleaf (Abutilon theophrasti); assay: as above
From the text: as §2, §3

[11] = tested on: ryegrass, Italian (Italian ryegrass, Lolium multiflorum); assay: as above
From the text: as §2, §3

[12] = Postemergence, 125 g ai/ha, 0 to 100 scale where 0 is no effect and 100 is complete control
[13] = Postemergence, 500 g ai/ha, 0 to 100 scale, 0 is no effect, 100 is complete control
[14] = Preemergence, 125 g ai/ha, 0 to 100 scale where 0 is no effect and 100 is complete control
[15] = Preemergence, 500 g ai/ha, 0 to 100 scale, 0 no effect, 100 complete control
[16] = Postemergence, 31 g ai/ha, 0 to 100 scale (0 no effect, 100 complete control)
[17] = Postemergence, 125 g ai/ha, scale 0 to 100, 0 is no effect, 100 is complete control
[18] = Postemergence, 250 g ai/ha, scale 0 to 100, 0 no effect, 100 complete control, 13 to 15 d
[19] = Preemergence, 31 g ai/ha, scale 0 to 100, 0 is no effect, 100 is complete control
[20] = Preemergence, 62 g ai/ha, scale 0 to 100, 0 is no effect, 100 is complete control
[21] = Preemergence, 125 g ai/ha, scale 0 to 100, 0 is no effect, 100 is complete control
[22] = Preemergence, 250 g ai/ha, scale 0 to 100, 0 no effect, 100 complete control
[23] = postemergence, 62 g ai/ha, scale 0 to 100, 0 no effect, 100 complete control

CCc1sc2ccc(C)cc2c1-c1c(O)c(C)nn(C)c1=O [Compound 47]
Plant response rating, Foxtail, Giant [1, 12]: 80
Foxtail, Giant plant response rating [1, 13]: 80
Foxtail, Giant plant response rating [1, 14]: 70
Plant response rating, Foxtail, Giant [1, 15]: 80
Plant response rating, Pigweed [2, 12]: 100
Pigweed plant response rating [2, 13]: 100
Pigweed plant response rating [2, 14]: 70
Plant response rating, Pigweed [2, 15]: 100
Plant response rating, Kochia [3, 12]: 90
Kochia plant response rating [3, 13]: 90
Kochia plant response rating [3, 14]: 10
Plant response rating, Kochia [3, 15]: 90
Plant response rating, Wheat [4]: 0
Wheat plant response rating [4]: 0
Plant response rating, Ragweed [5, 12]: 100
Ragweed plant response rating [5, 13]: 100
Ragweed plant response rating [5, 14]: 80
Plant response rating, Ragweed [5, 15]: 90
Morningglory plant response rating [6, 16]: 100
Plant response rating, Morningglory [6, 17]: 100
Plant response rating, Morningglory [6, 18]: 100
Plant response rating, Morningglory [6, 19]: 90
Plant response rating, Morningglory [6, 20]: 100
Plant response rating, Morningglory [6, 21]: 100
Morningglory plant response rating [6, 22]: 95
Morningglory plant response rating [6, 23]: 100
Blackgrass plant response rating [7, 16]: 0
Plant response rating, Blackgrass [7, 17]: 30
Plant response rating, Blackgrass [7, 18]: 30
Plant response rating, Blackgrass [7, 19]: 0
Plant response rating, Blackgrass [7, 20]: 30
Plant response rating, Blackgrass [7, 21]: 40
Blackgrass plant response rating [7, 22]: 90
Blackgrass plant response rating [7, 23]: 20
Pigweed plant response rating [8, 16]: 90
Plant response rating, Pigweed [8, 17]: 98
Plant response rating, Pigweed [8, 18]: 98
Plant response rating, Pigweed [8, 19]: 100
Plant response rating, Pigweed [8, 20]: 100
Plant response rating, Pigweed [8, 21]: 100
Pigweed plant response rating [8, 22]: 100
Pigweed plant response rating [8, 23]: 90
Corn plant response rating [9, 16]: 0
Plant response rating, Corn [9, 17]: 10
Plant response rating, Corn [9, 18]: 5
Plant response rating, Corn [9, 19]: 0
Plant response rating, Corn [9, 20]: 0
Plant response rating, Corn [9, 21]: 0
Corn plant response rating [9, 22]: 5
Corn plant response rating [9, 23]: 5
Velvetleaf plant response rating [10, 16]: 70
Plant response rating, Velvetleaf [10, 17]: 95
Plant response rating, Velvetleaf [10, 18]: 95
Plant response rating, Velvetleaf [10, 19]: 65
Plant response rating, Velvetleaf [10, 20]: 90
Plant response rating, Velvetleaf [10, 21]: 100
Velvetleaf plant response rating [10, 22]: 100
Velvetleaf plant response rating [10, 23]: 90
Ryegrass, Italian plant response rating [11, 16]: 0
Plant response rating, Ryegrass, Italian [11, 17]: 25
Plant response rating, Ryegrass, Italian [11, 18]: 30
Plant response rating, Ryegrass, Italian [11, 19]: 0
Plant response rating, Ryegrass, Italian [11, 20]: 20
Plant response rating, Ryegrass, Italian [11, 21]: 45
Ryegrass, Italian plant response rating [11, 22]: 50
Ryegrass, Italian plant response rating [11, 23]: 10

CCc1sc2c(C)cc(C)cc2c1-c1c(O)c(C)nn(C)c1=O [Compound 57]
Plant response rating, Foxtail, Giant [1, 12]: 80
Foxtail, Giant plant response rating [1, 13]: 90
Foxtail, Giant plant response rating [1, 14]: 100
Plant response rating, Foxtail, Giant [1, 15]: 100
Plant response rating, Pigweed [2, 12]: 100
Pigweed plant response rating [2, 13]: 100
Pigweed plant response rating [2, 14]: 100
Plant response rating, Pigweed [2, 15]: 100
Plant response rating, Kochia [3, 12]: 80
Kochia plant response rating [3, 13]: 100
Kochia plant response rating [3, 14]: 100
Plant response rating, Kochia [3, 15]: 100
Plant response rating, Wheat [4]: 0
Wheat plant response rating [4]: 10
Plant response rating, Ragweed [5, 12]: 100
Ragweed plant response rating [5, 13]: 100
Ragweed plant response rating [5, 14]: 90
Plant response rating, Ragweed [5, 15]: 100
Morningglory plant response rating [6, 16]: 95
Plant response rating, Morningglory [6, 17]: 100
Plant response rating, Morningglory [6, 18]: 100
Plant response rating, Morningglory [6, 19]: 100
Plant response rating, Morningglory [6, 20]: 100
Plant response rating, Morningglory [6, 21]: 100
Morningglory plant response rating [6, 22]: 100
Morningglory plant response rating [6, 23]: 100
Blackgrass plant response rating [7, 16]: 5
Plant response rating, Blackgrass [7, 17]: 5
Plant response rating, Blackgrass [7, 18]: 25
Plant response rating, Blackgrass [7, 19]: 30
Plant response rating, Blackgrass [7, 20]: 60
Plant response rating, Blackgrass [7, 21]: 70
Blackgrass plant response rating [7, 22]: 80
Blackgrass plant response rating [7, 23]: 5
Pigweed plant response rating [8, 16]: 60
Plant response rating, Pigweed [8, 17]: 85
Plant response rating, Pigweed [8, 18]: 100
Plant response rating, Pigweed [8, 19]: 100
Plant response rating, Pigweed [8, 20]: 100
Plant response rating, Pigweed [8, 21]: 100
Pigweed plant response rating [8, 22]: 100
Pigweed plant response rating [8, 23]: 80
Corn plant response rating [9, 16]: 0
Plant response rating, Corn [9, 17]: 5
Plant response rating, Corn [9, 18]: 10
Plant response rating, Corn [9, 19]: 0
Plant response rating, Corn [9, 21]: 0
Corn plant response rating [9, 22]: 35
Corn plant response rating [9, 23]: 5
Velvetleaf plant response rating [10, 16]: 90
Plant response rating, Velvetleaf [10, 17]: 100
Plant response rating, Velvetleaf [10, 18]: 100
Plant response rating, Velvetleaf [10, 19]: 50
Plant response rating, Velvetleaf [10, 20]: 80
Plant response rating, Velvetleaf [10, 21]: 95
Velvetleaf plant response rating [10, 22]: 100
Velvetleaf plant response rating [10, 23]: 95
Ryegrass, Italian plant response rating [11, 16]: 25
Plant response rating, Ryegrass, Italian [11, 17]: 50
Plant response rating, Ryegrass, Italian [11, 18]: 60
Plant response rating, Ryegrass, Italian [11, 19]: 45
Plant response rating, Ryegrass, Italian [11, 20]: 65
Plant response rating, Ryegrass, Italian [11, 21]: 70
Ryegrass, Italian plant response rating [11, 22]: 85
Ryegrass, Italian plant response rating [11, 23]: 30
